According to patent US12280026B2, “Use of repirinast in the prophylaxis or treatment of renal fibrosis or kidney disease” (ALGERNON PHARMACEUTICALS INC., priority 2018, dated 2025):
“Also recorded” adds a separate entry of the source.

Tested on: C57BL/6 mice with UUO surgical ligation
Test: Example 1: UUO mice, kidney weight evaluation (ligated vs non-ligated kidney)
Type: in vivo
Settings: doses of Table 1 (Telmisartan 5 mg/kg)
Experimental: Male 9-12 week old C57BL/6 mice of 23-25 grams body weight were used. All mice were acclimated for a minimum of 5 days prior to the start of the study and housed individually in microisolators throughout the study in a 12:12 light-dark cycle on a standard maintenance mouse chow diet (Harlan Teklad 2018) with food and water given ad libitum. Prior to surgery, all mice were weighed for baseline body weight.
The UUO surgical intervention was performed according to previously described methods known in the art (Le Meur Y et al., Macrophage accumulation at a site of renal inflammation is dependent on the M-CSF/c-fms pathway, J Leukocyte Biol., 72:530-537; 2002). […]
The dose selected for the animal studies was determined by taking the maximum known human daily dose, dividing by the average weight of an adult (˜60-70 kg) to get a human mg/kg dose. […]
Kidney weight: The UUO was then examined in situ to ensure that the surgical ligation ties remained patent. […] Weights of both kidneys were measured using a laboratory balance.
Kidney Weight Evaluation: Kidney weight indicating, which indicates functional and pathological changes in the kidney, was evaluated by measuring the weight of both the ligated (UUO) and non-ligated kidneys as previously described. […]

SMILES: CCCc1nc2c(C)cc(-c3nc4ccccc4n3C)cc2n1Cc1ccc(-c2ccccc2C(=O)O)cc1 [Telmisartan, 2-(4-{[4-Methyl-6-(1-methyl-1H-1,3-benzodiazol-2-yl)-2-propyl-1H-1,3-benzodiazol-1-yl]methyl}phenyl)benzoic acid]
- Disparity in weight between ligated and non-ligated kidney, in words: greatest numerical reduction in the disparity between the two kidneys; also recorded: appeared to reduce the disparity in kidney size
